Experimental data reported in ChEMBL document CHEMBL4295262, “Evaluation of the utility of stem-cell derived cardiomyocytes for drug proarrhythmic potential” (2019).

Key:
Conditions in all cases: human, ipsc-cm
[1] = (§1) Electrical activity assay on cell lines treated with a given drug. DMSO was used as a vehicle and a control, unblinded dofetilide was used as a control.; format: cell-based; parameters: APDc: unit not given here
[2] = as §1; format: ADME, cell-based; parameters: FPDc: unit not given here
[3] = as §1
[4] = as §1; remark: listed apart in the source
[5] = 0.01 µM, concentration (um) 0.01 uM
[6] = 0.1 µM, concentration (um) 0.1 uM
[7] = 10 µM, concentration (um) 10 uM

| APDc [1, 5] | FPD measurement [1, 5] [FPDc] | APDc [1, 6] | FPD measurement [1, 6] [FPDc] | APDc ([1]; 1 µM, concentration (um) 1 uM) | FPD measurement ([1]; 1 µM, concentration (um) 1 uM) [FPDc] | FPDc [2, 5] | FPDc [2, 6] | FPDc ([2]; 1 µM, concentration (um) 1 uM) | FPDc ([3]; 0.01 µM) | FPDc ([3]; 0.1 µM) | SMILES | FPDc [2, 7] | FPDc ([3]; 1 µM) | FPDc ([3]; 10 µM) | further results |
| --- | --- | --- | --- | --- | --- | --- | --- | --- | --- | --- | --- | --- | --- | --- | --- |
| 52.41 | 52.41 | 47.87 | 47.87 | 63.58 | 63.58 | 0.03892 | 0.04044 | 0.04651 | 73.84 | 69.12 | CN1CCN(CCCCN2C(=O)CN(/N=C/c3ccc(-c4ccc(Cl)cc4)o3)C2=O)CC1 [AZIMILIDE] | 0.06031 | More Than Half The Wells Had A Quiescence Event Or Fpdc Readings Of 0 | More Than Half The Wells Had A Quiescence Event Or Fpdc Readings Of 0 | APDc [1, 7]: 121.3; FPD measurement [1, 7]: 121.3 FPDc; FPD measurement ([4]; 0.01 µM): 55.32 FPDc; FPDc ([4]; 0.01 µM): 55.32; FPD measurement ([4]; 0.1 µM): 56.52 FPDc; FPDc ([4]; 0.1 µM): 56.52; FPD measurement ([4]; 1 µM): 77.06 FPDc; FPDc ([4]; 1 µM): 77.06; FPD measurement ([4]; 10 µM): 5 Values Out Of 5 Were Excluded Due To Quiescence Or 0 Fpdc; FPDc ([4]; 10 µM): 5 Values Out Of 5 Were Excluded Due To Quiescence Or 0 Fpdc |
| 52.45 | 52.45 | 43.71 | 43.71 | 57.33 | 57.33 | 0.04073 | 0.0376 | 0.04541 | 70.33 | 77.75 | CC(C)COCC(CN(Cc1ccccc1)c1ccccc1)N1CCCC1 (stereo unspecified) [BEPRIDIL] | More Than Half The Wells Had A Quiescence Event Or Fpdc Readings Of 0 | 78.3 | More Than Half The Wells Had A Quiescence Event Or Fpdc Readings Of 0 | FPD measurement [2, 7]: More Than Half The Wells Had A Quiescence Event Or Fpdc Readings Of 0; FPD measurement ([3]; 1 µM): 5 Values Out Of 5 Were Excluded Due To Quiescence Or 0 Apdc; FPD measurement ([3]; 10 µM): More Than Half The Wells Had A Quiescence Event Or Apdc Readings Of 0 |
